The values below come from the METLIN SMRT retention time set (Domingo-Almenara et al. 2019).

The nature of this series: gradient 5% acetonitrile 3 min, to 50% in 2 min, to 85% in 15 min, held 3 min, 100 µL/min. Particulars: column: Zorbax Extend-C18 2.1 x 50 mm; eluents: water / acetonitrile, 0.1% formic acid. An outline of the steps: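 Data were gathered over 3 months by HPLC coupled to a quadrupole time-of-flight mass spectrometer, operated in positive and negative ionization mode. Mixtures of ~100 pure standards ran on a Zorbax Extend-C18 column (2.1 × 50 mm, 1.8 μm) at 100 μL/min, with water and acetonitrile each containing 0.1% formic acid and dead and dwell volumes of 40 μL and 900 μL. Retention time was read from adduct peaks picked by computer and checked manually.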
Compound `Cc1cccc(-c2ncccc2CNS(=O)(=O)c2cccc(Cl)c2)c1` registered an RP-LC retention time of 763 s.
The compound `CCc1nc(N)n(CC(=O)Nc2ccc(F)cc2)c(=O)c1C` gave an RP-LC retention time of 634 s.
`COc1ccc(NC(=O)C(C)C2CCN(C(=O)Nc3ccc(C)cc3)CC2)c(OC)c1` (stereo not drawn) registered an RP-LC retention time of 848 s.
For `COc1ccc(-c2noc(C3CC(=O)N(c4ccccc4)C3)n2)c(OC)c1` (stereo not drawn) the value was 803 s.
The value for `O=C(CCC1CCCN(c2cc(NC3CC3)ncn2)C1)N1CCCN(c2ncccn2)CC1` (stereo not drawn) was 618 s; that for `Cc1cc(=O)n(CC(=O)NCc2ccccc2)c(N)n1` was 570 s; that for `CC(C)n1cnc(S(=O)(=O)N2CCC(C(=O)Nc3ccc(F)cc3)CC2)c1` was 740 s.
As to `COc1ccc(NC(=O)c2nnc(C(=O)NCCc3c[nH]c4ccc(OC)cc34)s2)cc1`, the RP-LC retention time is 951 s.
For `CC(C)S(=O)(=O)c1cc2c(cc1NC(=O)c1ccccc1C(F)(F)F)n(C)c(=O)n2C` the value was 853 s; for `CCOC(=O)C1CCN(C(=O)C2CCN(c3nccc(C)n3)CC2)CC1`, 662 s.
The value for `O=C(Nc1cccc2cccnc12)c1ccc(N2C(=O)[C@@H]3[C@H](C2=O)[C@@H]2C=C[C@H]3C2)cc1` was 941 s; that for `CCc1noc(NC(C)=O)c1-c1ccc(C)c(S(=O)(=O)Nc2ccc(C)c(Cl)c2)c1` was 914 s.
In turn, `Cc1ccc(C)c(NC(=O)CSc2nnc3c4cc(-c5ccc(C)c(C)c5)nn4ccn23)c1` registered an RP-LC retention time of 778 s.
Compound `Cc1ccc(NC(=O)Nc2ccc3c(c2)CCN3S(=O)(=O)c2ccccc2)cc1C` had an RP-LC retention time of 1030 s.
For `O=C1c2ccccc2C(=O)c2sc(Nc3ccc(Cl)cc3)nc21` the value was 1030 s; for `O=C(NCCCN1CCCCC1)C1CCN(c2nc3cccnc3s2)CC1`, 577 s; for `Cn1ncc2c3ccccc3n(CC(=O)NCCCN3CCCC3)c2c1=O`, 592 s.
In turn, `CCc1nnc2cc(N3CCN(C(=O)c4ccc(Cl)cc4)CC3)cnn12` registered an RP-LC retention time of 561 s.
Consider `COc1cccc(CNC(=O)C2CCN(c3cc(N4CCOCC4)ncn3)CC2)c1`, for which the RP-LC retention time amounted to 616 s.
The value for `CN(C)c1ccc(CN2C(=O)CN(S(C)(=O)=O)CC2(C)C(=O)NCc2ccc(Cl)cc2)cc1` (stereo not drawn) was 662 s.
With `CCOc1ccccc1NC(=O)C1CCCN1S(=O)(=O)c1cc2c(cc1Cl)NC(=O)CO2` (stereo not drawn), the RP-LC retention time is 880 s.
The compound `Cc1nn(C(C)C(=O)NCCCN2CCCCCC2)c(=O)c2c1sc1ccccc12` (stereo not drawn) had an RP-LC retention time of 702 s.
For `COc1cccc(C(=O)NCC(=O)Nc2nc3ccccc3[nH]2)c1` the value was 624 s; for `Cc1ccccc1NC(=O)CN1C(=O)CC(c2ccccc2)S(=O)(=O)c2ccccc21` (stereo not drawn), 894 s; for `O=C(COc1ccccc1F)Nc1ccc2c(c1)CCC(=O)N2Cc1ccccc1`, 860 s.
In the case of `COc1ccccc1CNC(=O)C1CCN(S(=O)(=O)c2ccc3c(c2)CCCC(=O)N3)CC1`, the RP-LC retention time is 816 s.
With `CCC1CCCCN1CCCNC(=O)CCc1cc2cc(OC)ccc2[nH]c1=O` (stereo not drawn), the RP-LC retention time worked out at 596 s.
`Cc1ccc(Sc2nccnc2N2CCCC(C(=O)NCc3cc(F)cc(F)c3)C2)cc1` (stereo not drawn) gave an RP-LC retention time of 1120 s.
As for `CCC(C)NC(=O)c1ccc2c(c1)CCCN2S(=O)(=O)CC` (stereo not drawn), the RP-LC retention time was 781 s.
In turn, `COc1ccc2nc(-n3nc(C)cc3NC(=O)c3ccc([N+](=O)[O-])o3)sc2c1` returned an RP-LC retention time of 1220 s.
Turning to `O=C(CSCC(=O)c1ccccc1)c1ccccc1`, the RP-LC retention time is 880 s.
For `O=S(=O)(c1ccc(-c2nnc(C3CC3)o2)o1)N1CCN(C2CCCCC2)CC1` the value was 642 s; for `Cc1ccc(Cl)cc1NS(=O)(=O)c1ccc2onc(C(=O)N3CCCC3)c2c1`, 1030 s; for `COc1ccc(C2c3c(n(C)c4ccccc34)C(=O)N2CC(=O)N2CCN(c3ccccn3)CC2)cc1` (stereo not drawn), 710 s.
The compound `COc1ccc(-c2cn3c(CC(=O)N4CCN(c5ncccn5)CC4)csc3n2)cc1OC` yielded an RP-LC retention time of 639 s.
`CC(C)c1cccc(NC(=O)Cn2nc3n(c2=O)CCCCC3)c1` showed an RP-LC retention time of 700 s.
For the compound `COCCn1ncc(N2CCC(C(=O)N(C)CC(=O)Nc3ccc(F)cc3)C2)cc1=O` (stereo not drawn), the RP-LC retention time came to 650 s.
For `c1ccc(N2CCN(Cc3nc(-c4ccc(N5CCCCCC5)nc4)no3)CC2)nc1`, the RP-LC retention time was 593 s.
The value for `CN(C)C(=O)c1csc(N2CCN(c3ccccc3F)CC2)n1` was 884 s; that for `COc1ccc(C2Cn3cnc(C(=O)N4CCC(C(=O)NC(C)C)CC4)c3CO2)cc1` (stereo not drawn) was 669 s; that for `Cc1nn(C)c(C)c1S(=O)(=O)N1CC=C(c2cn(C)c3ncccc23)CC1` was 754 s.
On to `CSc1cccc(NC(=O)Nc2cccc(-c3ccc(N4CCOCC4)nn3)c2)c1`, for which the RP-LC retention time is 742 s.
For `Cc1nnsc1C(=O)N1CC2CC(C1)c1cccc(=O)n1C2` (stereo not drawn) the value was 551 s; for `CCOc1ccc(S(=O)(=O)N2CCCC2c2nc(-c3ccc(Cl)cc3)no2)cc1` (stereo not drawn), 1230 s; for `COc1cccc(NS(=O)(=O)c2ccc(-c3c(C)noc3C)cc2)c1`, 884 s.
`CC1Oc2ccc(S(=O)(=O)N3CCC(C(=O)Nc4cccc(Cl)c4)CC3)cc2NC1=O` (stereo not drawn) yielded an RP-LC retention time of 891 s.
The compound `CCOC(=O)c1[nH]c(C)c(C(=O)N(Cc2ccccc2)C(C)C)c1C` had an RP-LC retention time of 860 s.
`CCOc1ccc(-n2c(CN3CCN(C(=O)NCCCOC)CC3)nc3cccnc32)cc1`: the RP-LC retention time stood at 609 s.
The value for `COc1ccc(-c2nc3ccccn3c2NC(=O)c2ccc(Cl)c([N+](=O)[O-])c2)cc1` was 720 s; that for `O=C(NC1CCCC1)N1CCN(Cc2nc3cc(-c4ccccc4)ccc3o2)CC1` was 787 s; that for `O=C(c1cncc(Br)c1)N1CCC(Cc2nnc(-c3ccccc3)o2)CC1` was 782 s.
For `O=C(CN1CCN(Cc2ccccc2)C1=O)N1CCN(c2ccc(F)cc2)CC1` the value was 813 s; for `Cc1cccc(N2CCN(C(=O)c3cc(C4CC4)[nH]n3)CC2)c1C`, 921 s.
The value for `CN(C(=O)c1ccncc1)c1ccccc1` was 667 s; that for `COc1ccc(C(=O)N2CCN(c3cc(-c4cccs4)[nH]n3)CC2)cc1OC` was 741 s; that for `Cc1ccccc1N1C(=O)CN(S(=O)(=O)c2ccccc2)CC1(C)C(=O)NCc1ccc(F)cc1` (stereo not drawn) was 913 s.
In turn, `CCn1ccc(C(=O)NC2CCCC2)n1` displayed an RP-LC retention time of 709 s.
The value for `C=CCNC(=O)C1CCN(C(=O)Nc2ccc(NC(=O)Nc3ccc(C)cc3C)cc2)CC1` was 728 s.
